According to article PMC10045534, “Preparation and Evaluation of 6-Gingerol Derivatives as Novel Antioxidants and Antiplatelet Agents” (Antioxidants, 2023):

Key:
[1] = DPPH free radical scavenging assay; conditions: for IC50: 30 min, room temperature, MeOH, mean ± SEM, n = 2, read-out: DDPH IC50
Protocol: (§1) All bioactivity data processing, including the calculation of inhibition percentage, mean and corresponding standard error of the mean (SEM), and IC50 values, was performed by GraphPad Prism 8.0 (La Jolla, CA, USA). IC50 values were calculated from the sigmoidal dose–response curves obtained by the log(inhibitor) vs. response and variable slope (DPPH assay) or the log(inhibitor) vs. normalised response and variable slope nonlinear regression model. On the results obtained, no statistical evaluation was performed; instead, differences greater than two-fold were considered relevant. Plotting of the antiplatelet and COX-1 inhibitory IC50 values and the linear regression of the data was performed by Microsoft Excel.
DPPH (1,10-diphenyl-2-picrylhydrazyl) was purchased from Thermo Fisher Scientific. DPPH free radical scavenging assay was performed with some modifications based on the method by previous study. Briefly, in a 96-well microplate, microdilutions of samples (100 µL, starting from 200 µM in HPLC grade MeOH) were made and 100 µL of DPPH reagent (100 µM in MeOH) was added. After 30 min at room temperature in the dark, the absorbance was measured at 550 nm using a FluoStar Optima plate reader (software version 2.20R2, BMG Labtech Ortenberg, Germany). For the blank control, MeOH was used. The scavenging activity was calculated as Inhibition (%) = (A0 − As)/A0 × 100, and IC50 values were calculated by GraphPad Prism 8.0 (La Jolla, CA, USA).

[2] = Peroxynitrite scavenging (pyrogallol red); conditions: % inhibition at 500 µM; mean ± SEM, n = 3
Protocol: Peroxynitrite was synthesised by a continuous flow system using syringe pumps as published previously. Briefly, an acidic solution of hydrogen peroxide (0.6 M H2O2, 0.7 M HCl) was pumped to a junction alongside of sodium nitrite solution (0.6 M) at a flow rate of 1.5 mL/min. After passing 10 cm of tubing, it was mixed with a sodium hydroxide solution (1.5 M), also pumped at 1.5 mL/min. The resulting peroxynitrite solution was a bright yellow colour. The tubing around the reaction was submerged in ice. The concentration of the solution was determined by spectrophotometry and was adjusted to 30 mM with 0.1 M NaOH solution.
In a 96-well microplate 245 µL of pyrogallol red (100 µM final concentration, dissolved in 0.1 M glycine buffer) was mixed with 50 µL of sample (0.5 mM final concentration, dissolved in DMSO) and 5 µL ONOO^– solution (500 µM final concentration, freshly prepared). After mixing and keeping it at room temperature for 30 min the absorbance was measured at 550 nm using a FluoStar Optima plate reader (software version 2.20R2, BMG Labtech, Ortenberg, Germany).

xanthine oxidase (XO) = molecular target: T1, xanthine oxidase (XO) (Bos taurus, UniProt P80457); experiment: Xanthine oxidase inhibition, spectrophotometric; format: biochemical; conditions: read-out: XO Inhibition (%)
T1 construct: purchased Sigma (Merck KGaA)
T1 sequence (P80457 2-1332 limits assumed): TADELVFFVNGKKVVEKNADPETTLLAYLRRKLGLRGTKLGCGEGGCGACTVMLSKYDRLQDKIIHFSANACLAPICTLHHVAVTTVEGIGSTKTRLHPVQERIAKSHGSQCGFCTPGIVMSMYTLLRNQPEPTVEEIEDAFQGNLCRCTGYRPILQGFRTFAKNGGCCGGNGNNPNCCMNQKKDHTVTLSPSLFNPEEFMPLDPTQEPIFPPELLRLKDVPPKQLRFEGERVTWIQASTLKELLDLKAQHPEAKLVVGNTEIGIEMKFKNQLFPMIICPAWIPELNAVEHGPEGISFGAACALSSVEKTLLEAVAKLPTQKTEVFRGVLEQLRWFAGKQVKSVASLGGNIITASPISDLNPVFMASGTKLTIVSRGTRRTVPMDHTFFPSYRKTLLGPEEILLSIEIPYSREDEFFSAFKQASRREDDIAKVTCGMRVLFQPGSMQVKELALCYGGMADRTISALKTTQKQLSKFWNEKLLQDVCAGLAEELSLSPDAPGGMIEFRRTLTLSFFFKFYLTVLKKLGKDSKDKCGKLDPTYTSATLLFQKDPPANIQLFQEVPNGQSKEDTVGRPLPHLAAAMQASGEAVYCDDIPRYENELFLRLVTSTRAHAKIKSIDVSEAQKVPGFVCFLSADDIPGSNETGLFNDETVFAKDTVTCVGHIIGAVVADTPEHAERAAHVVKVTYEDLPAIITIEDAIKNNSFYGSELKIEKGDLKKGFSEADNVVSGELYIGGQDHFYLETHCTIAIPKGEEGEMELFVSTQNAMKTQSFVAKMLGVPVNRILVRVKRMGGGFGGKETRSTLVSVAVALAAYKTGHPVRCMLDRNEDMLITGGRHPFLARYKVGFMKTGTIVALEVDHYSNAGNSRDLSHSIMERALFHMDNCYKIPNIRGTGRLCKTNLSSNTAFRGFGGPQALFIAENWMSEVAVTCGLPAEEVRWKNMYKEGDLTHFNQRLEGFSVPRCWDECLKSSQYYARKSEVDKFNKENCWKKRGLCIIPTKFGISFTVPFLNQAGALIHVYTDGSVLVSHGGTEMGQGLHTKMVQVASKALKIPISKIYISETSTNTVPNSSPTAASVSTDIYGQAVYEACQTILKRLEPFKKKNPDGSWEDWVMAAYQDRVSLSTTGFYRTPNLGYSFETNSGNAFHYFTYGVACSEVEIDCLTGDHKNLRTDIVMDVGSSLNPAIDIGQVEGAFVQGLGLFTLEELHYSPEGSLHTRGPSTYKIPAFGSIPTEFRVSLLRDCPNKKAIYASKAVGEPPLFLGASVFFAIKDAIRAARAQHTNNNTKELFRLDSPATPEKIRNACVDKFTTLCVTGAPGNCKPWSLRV
Protocol: The xanthine oxidase (XO) inhibitory activity of the compounds was determined using continuous spectrophotometric rate based on a modified protocol of Sigma. […]. In a 96-well plate, the final reaction mixture consisted of 10 µL of sample (dissolved in DMSO, […] stock solution, 100 µM final), 100 µL of xanthine solution (0.15 mM, pH = 7.4), 140 µL of buffer (potassium phosphate, pH = 7.5) and 50 µL of XO (0.2 units/mL). When measuring the enzyme activity, control buffer was used in place of the sample. Allopurinol was applied as a control. The reaction was initiated by the automatic addition of 50 µL of XO solution. The absorbance of XO-induced uric acid production from xanthine was measured at 290 nm for 3 min in a 96-well plate on a BMG Labtech FluoStar Optima plate reader. The inhibitory percentage values were calculated by using Graph Pad Prism 8.0 (La Jolla, CA, USA).

washed human platelets = experiment: Arachidonic acid-induced platelet aggregation (turbidimetric aggregometer); format: cell-based; conditions: for IC50: Platelet, 0.05 h, washed human platelets treated 3 min, then arachidonic acid (100 μM), mean ± SEM, n = 3, read-out: Antiplatelet IC50
Protocol: as §1
Human platelet suspension (3 × 10^8/mL in Tyrode’s buffer) was prepared as previously described. The protocol for this study was approved by the institutional review board of Kaohsiung Medical University Hospital (Kaohsiung City, Taiwan). Platelets pre-treated with DMSO (vehicle control) or test compounds were stimulated with arachidonic acid (AA), and platelet aggregation was measured using turbidimetric aggregometer (Chrono-Log Co., Havertown, PA, USA) at 37 °C under stirring conditions (1200 rpm).

| SMILES | IC50 [1] | inhibition at 100 µM (xanthine oxidase (XO)) | IC50 (washed human platelets) | ONOO^– Scavenging (%) [2] | times weaker antiplatelet effect than the most promising compounds (washed human platelets; AA-induced platelet aggregation, ratio of IC50 values) | DPPH scavenging activity (in words) [1] | antiplatelet activity (in words) (washed human platelets; AA-induced platelet aggregation) |
| --- | --- | --- | --- | --- | --- | --- | --- |
| CCCCC/C=C/C(=O)CCc1ccc(O)c(OC)c1 [Compound 2, 6-shogaol] | 11.4 ± 0.49 µM | < 5% | 2.8 ± 0.5 µM | <5.0% |  |  |  |
| CCCCCCCC(=O)CCc1ccc(O)c(OC)c1 [Compound 3, 4,5-dihydro-6-shogaol] | 9.43 ± 0.16 µM | < 5% | 2.1 ± 1 µM | <5.0% |  |  |  |
| CCCCCCCC(CCc1ccc(O)c(OC)c1)=NO [Compound 4, 1-(4-hydroxy-3-methoxyphenyl)decan-3-one oxime] | 8.56 ± 0.07 µM | 10.6 ± 2.3% | 5.2 ± 0.4 µM | <5.0% |  |  |  |
| CCCCC[C@H](O)C[C@H](O)CCc1ccc(O)c(OC)c1 [Compound 5, (3R,5S)-1-(4-hydroxy-3-methoxyphenyl)decane-3,5-diol] | 6.51 ± 0.28 µM | < 5% | 51.7 ± 2.7 µM | <5.0% |  |  |  |
| CCCCCc1cc(CCc2ccc(O)c(OC)c2)[nH]n1 [Compound 14, 2-methoxy-4-(2-(3-pentyl-1H-pyrazol-5-yl)ethyl)phenol] | 16.2 ± 0.46 µM | 10.1 ± 1.65% | 4.1 ± 1.2 µM | <5.0% |  |  |  |
| CCCCCc1cc(/C=C/c2ccc(O)cc2)[nH]n1 [Compound 16, (E)-4-(2-(3-pentyl-1H-pyrazol-5-yl)vinyl)phenol] | 19 ± 1.63 µM | 16 ± 4.05% | 3.5 ± 0.9 µM | <5.0% |  |  |  |
| CCCCCc1cc(/C=C/c2ccc(O)c(OC)c2)on1 [Compound 17, (E)-2-methoxy-4-(2-(3-pentylisoxazol-5-yl)vinyl)phenol] | 8.13 ± 0.21 µM | < 5% | 3.1 ± 0.9 µM | 38.40 ± 3.05% |  |  |  |

More lines, main results first:

| IC50 [1] | inhibition at 100 µM (xanthine oxidase (XO)) | IC50 (washed human platelets) | SMILES | ONOO^– Scavenging (%) [2] | times weaker antiplatelet effect than the most promising compounds (washed human platelets; AA-induced platelet aggregation, ratio of IC50 values) | DPPH scavenging activity (in words) [1] | antiplatelet activity (in words) (washed human platelets; AA-induced platelet aggregation) |
| --- | --- | --- | --- | --- | --- | --- | --- |
| 8.92 ± 0.46 µM | < 5% | 45.9 ± 5.1 µM | CCCCC[C@H](O)CC(=O)CCc1ccc(O)c(OC)c1 [Compound 1, (S)-5-hydroxy-1-(4-hydroxy-3-methoxyphenyl)decan-3-one] | <5.0% | up to 22 times |  |  |
| 13.82 ± 0.03 µM | < 5% | 45.1 ± 6 µM | CCCCC[C@H](O)C[C@@H](O)CCc1ccc(O)c(OC)c1 [Compound 6, (3S,5S)-1-(4-hydroxy-3-methoxyphenyl)decane-3,5-diol] | <5.0% |  |  |  |
| > 200 µM | 12.3 ± 0.9% | > 100 µM | CCCCCc1cc(CCc2ccc(O)cc2)[nH]n1 [Compound 15, 4-(2-(3-pentyl-1H-pyrazol-5-yl)ethyl)phenol] | <5.0% |  | inactive |  |
| > 100 µM | < 5% | 32 ± 10.1 µM | CCCCCc1cc(/C=C/c2ccc(O)cc2)on1 [Compound 18, (E)-4-(2-(3-pentylisoxazol-5-yl)vinyl)phenol] | 5.64 ± 1.31% |  | inactive |  |
| 14.1 ± 0.21 µM | < 5% | 35.9 ± 23.7 µM | CCCCCCCNC(=O)CCc1ccc(O)c(OC)c1 [Compound 22] | <5.0% |  |  | only moderate activity |
